Source: patent US20230167105A1, “BCL-2 PROTEIN INHIBITORS” (Recurium IP Holdings, LLC, priority 2020, published 2023)

System: MOLT-4 cells
Experiment: MOLT-4 Cell Proliferation Assay (CellTiter-Glo)
Type: cell-based
Settings: Homo sapiens, 72 h, read-out: MOLT-4 CTG IC50
Protocol: Cell proliferation was measured using the CellTiter-Glo® Luminescent Cell Viability Assay. The assay involved the addition of a single reagent (CellTiter-Glo® Reagent) directly to cells cultured in serum-supplemented medium. MOLT-4 cells (ATCC, CRL-1582) were cultured according to ATCC recommendations and were seeded at 50,000 cells per well.
Each compound evaluated was prepared as a DMSO stock solution (10 mM). Compounds were tested in duplicate on each plate, with a 10-point serial dilution curve (1:3 dilution). The highest compound concentration was 10 μM (final), with a 0.1% final DMSO concentration. Plates were then incubated at 37° C., 5% CO2 for 72 h, cell plates were equilibrated at rt for approximately 30 mins. An equi-volume amount of CellTiter-Glo® Reagent (100 μL) was added to each well. Plates were mixed for 2 mins on an orbital shaker to induce cell lysis and then incubated at rt for 10 mins to stabilize the luminescent signal. Luminescence was recorded using a Envision plate reader according to CellTiter-Glo protocol. IC50 of each compound was calculated using GraphPad Prism by nonlinear regression analysis.

Structure (SMILES) | IC50
Cc1ncsc1-c1ccc([C@H](C)NC(=O)[C@@H]2C[C@@H](O)CN2C(=O)[C@@H](NC(=O)CCCCCCC(=O)N2CCN(CC[C@H](CSc3ccccc3)Nc3ccc(S(=O)(=O)NC(=O)c4ccc(N5CCN(CC6=C(C78CC(C(F)F)(C7)C8)CC(C)(C)CC6)CC5)cc4)cc3S(=O)(=O)C(F)(F)F)CC2)C(C)(C)C)cc1 [Example 23, (2S,4R)-1-((S)-2-(8-(4-((R)-3-((4-(N-(4-(4-((2-(3-(difluoromethyl)bicyclo[1.1.1]pentan-1-yl)-4,4-dimethylcyclohex-1-en-1-yl)methyl)piperazin-1-yl)benzoyl)sulfamoyl) ((trifluoromethyl)sulfonyl)phenyl)amino)-4-(phenylthio)butyl)piperazin-1-yl)-8-oxooctanamido)-3,3-dimethylbutanoyl)-4-hydroxy-N—((S)-1-(4-(4-methylthiazol-5-yl)phenyl)ethyl)pyrrolidine-2-carboxamide] | 50 to 150 nM
CN(CCCNc1cccc2c1C(=O)N(C1CCC(=O)NC1=O)C2=O)CC[C@H](CSc1ccccc1)Nc1ccc(S(=O)(=O)NC(=O)c2ccc(N3CCN(CC4=C(C56CC(C(F)F)(C5)C6)CC(C)(C)CC4)CC3)cc2)cc1S(=O)(=O)C(F)(F)F (stereo partly drawn) [Example 19, 4-(4-((2-(3-(difluoromethyl)bicyclo[1.1.1]pentan-1-yl)-4,4-dimethylcyclohex-1-en-1-yl)methyl)piperazin-1-yl)-N-((4-(((2R)-4-((3-((2-(2,6-dioxopiperidin-3-yl)-1,3-dioxoisoindolin-4-yl)amino)propyl)(methyl)amino)-1-(phenylthio)butan-2-yl)amino)-3-((trifluoromethyl)sulfonyl)phenyl)sulfonyl)benzamide] | 50 to 150 nM
CC1(C)CCC(CN2CCN(c3ccc(C(=O)NS(=O)(=O)c4ccc(N[C@H](CCN5CCN(CCCCCCNc6cccc7c6C(=O)N(C6CCC(=O)NC6=O)C7=O)CC5)CSc5ccccc5)c(S(=O)(=O)C(F)(F)F)c4)cc3)CC2)=C(C23CC(C(F)F)(C2)C3)C1 (stereo partly drawn) [Example 11, 4-[4-[[2-[3-(difluoromethyl)-1-bicyclo[1.1.1]pentanyl]-4,4-dimethyl-cyclohexen-1-yl]methyl]piperazin-1-yl]-N-[4-[[(1R)-3-[4-[6-[[2-(2,6-dioxo-3-piperidyl)-1,3-dioxo-isoindolin-4-yl]amino]hexyl]piperazin-1-yl]-1-(phenylsulfanylmethyl)propyl]amino]-3-(trifluoromethylsulfonyl)phenyl]sulfonyl-benzamide] | ≥ 150 nM
CC1(C)CCC(CN2CCN(c3ccc(C(=O)NS(=O)(=O)c4ccc(N[C@H](CCN5CCN(CCCNc6cccc7c6C(=O)N(C6CCC(=O)NC6=O)C7=O)CC5)CSc5ccccc5)c(S(=O)(=O)C(F)(F)F)c4)cc3)CC2)=C(C23CC(C(F)F)(C2)C3)C1 (stereo partly drawn) [Example 5, 4-[4-[[2-[3-(difluoromethyl)-1-bicyclo [1.1.1]pentanyl]-4,4-dimethyl-cyclohexen-1-yl]methyl]piperazin-1-yl]-N-[4-[[(1R)-3-[4-[3-[[2-(2,6-dioxo-3-piperidyl)-1,3-dioxo-isoindolin-4-yl]amino]propyl]piperazin-1-yl]-1-(phenylsulfanylmethyl)propyl]amino]-3-(trifluoromethylsulfonyl)phenyl]sulfonyl-benzamide] | ≤ 50 nM
Cc1cc([C@@H](C(=O)N2C[C@H](O)C[C@H]2C(=O)N[C@@H](CC(=O)NCCCCCC(=O)N2CCN(CC[C@H](CSc3ccccc3)Nc3ccc(S(=O)(=O)NC(=O)c4ccc(N5CCN(CC6=C(C78CC(C(F)F)(C7)C8)CC(C)(C)CC6)CC5)cc4)cc3S(=O)(=O)C(F)(F)F)CC2)c2ccc(-c3scnc3C)cc2)C(C)C)on1 [Example 56, (2S,4R)—N—((S)-3-((6-(4-((R)-3-((4-(N-(4-(4-((2-(3-(difluoromethyl)bicyclo[1.1.1]pentan-1-yl)-4,4-dimethylcyclohex-1-en-1-yl)methyl)piperazin-1-yl)benzoyl)sulfamoyl)-2-((trifluoromethyl)sulfonyl)phenyl)amino)-4-(phenylthio)butyl)piperazin-1-yl)-6-oxohexyl)amino)-1-(4-(4-methylthiazol-5-yl)phenyl)-3-oxopropyl)-4-hydroxy-1-((S)-3-methyl-2-(3-methylisoxazol-5-yl)butanoyl)pyrrolidine-2-carboxamide] | ≥ 150 nM
Cc1ncsc1-c1ccc(CNC(=O)[C@@H]2C[C@@H](O)CN2C(=O)[C@@H](NC(=O)CCCCCC(=O)N2CCN(CC[C@H](CSc3ccccc3)Nc3ccc(S(=O)(=O)NC(=O)c4ccc(N5CCN(CC6=C(C78CC(C(F)F)(C7)C8)CC(C)(C)CC6)CC5)cc4)cc3S(=O)(=O)C(F)(F)F)CC2)C(C)(C)C)cc1 [Example 45, (2S,4R)-1-((S)-2-(7-(4-((R)-3-((4-(N-(4-(4-((2-(3-(difluoromethyl)bicyclo[1.1.1]pentan-1-yl)-4,4-dimethylcyclohex-1-en-1-yl)methyl)piperazin-1-yl)benzoyl)sulfamoyl)-2-((trifluoromethyl)sulfonyl)phenyl)amino)-4-(phenylthio)butyl)piperazin-1-yl)-7-oxoheptanamido)-3,3-dimethylbutanoyl)-4-hydroxy-N-(4-(4-methylthiazol-5-yl)benzyl)pyrrolidine-2-carboxamide] | ≥ 150 nM
CC1(C)CCC(c2ccc(Cl)cc2)=C(CN2CCN(c3ccc(C(=O)NS(=O)(=O)c4ccc(N[C@H](CCN5CCOCC5)CSc5ccccc5)c(S(=O)(=O)C(F)(F)F)c4)cc3)CC2)C1 [ABT-263, navitoclax, reference compound] | 50 to 150 nM
Cc1ncsc1-c1ccc([C@H](CC(=O)NCCCCCCN(C)CC[C@H](CSc2ccccc2)Nc2ccc(S(=O)(=O)NC(=O)c3ccc(N4CCN(CC5=C(C67CC(C(F)F)(C6)C7)CC(C)(C)CC5)CC4)cc3)cc2S(=O)(=O)C(F)(F)F)NC(=O)[C@@H]2C[C@@H](O)CN2C(=O)[C@@H](NC(=O)C2(F)CC2)C(C)(C)C)cc1 [Example 49, (2S,4R)—N-[(1S)-3-[6-[[(3R)-3-[4-[[4-[4-[[2-[3-(difluoromethyl)-1-bicyclo[1.1.1]pentanyl]-4,4-dimethyl-cyclohexen-1-yl]methyl]piperazin-1-yl]benzoyl]sulfamoyl]-2-(trifluoromethylsulfonyl)anilino]-4-phenylsulfanyl-butyl]-methyl-amino]hexylamino]-1-[4-(4-methylthiazol-5-yl)phenyl]-3-oxo-propyl]-1-[(2S)-2-[(1-fluorocyclopropanecarbonyl)amino]-3,3-dimethyl-butanoyl]-4-hydroxy-pyrrolidine-2-carboxamide] | ≥ 150 nM
Cc1cc([C@H](C(=O)N2C[C@H](O)C[C@H]2C(=O)N[C@@H](CC(=O)NCCCCCC(=O)N2CCN(CC[C@H](CSc3ccccc3)Nc3ccc(S(=O)(=O)NC(=O)c4ccc(N5CCN(CC6=C(C78CC(C(F)F)(C7)C8)CC(C)(C)CC6)CC5)cc4)cc3S(=O)(=O)C(F)(F)F)CC2)c2ccc(-c3scnc3C)cc2)C(C)C)on1 [Example 50, (2S,4R)—N—((S)-3-((6-(4-((R)-3-((4-(N-(4-(4-((2-(3-(difluoromethyl)bicyclo[1.1.1]pentan-1-yl)-4,4-dimethylcyclohex-1-en-1-yl)methyl)piperazin-1-yl)benzoyl)sulfamoyl)-2-((trifluoromethyl)sulfonyl)phenyl)amino)-4-(phenylthio)butyl)piperazin-1-yl)-6-oxohexyl)amino)-1-(4-(4-methylthiazol-5-yl)phenyl)-3-oxopropyl)-4-hydroxy-1-((R)-3-methyl-2-(3-methylisoxazol-5-yl)butanoyl)pyrrolidine-2-carboxamide] | ≥ 150 nM
CCC12CC(C3=C(CN4CCN(c5ccc(C(=O)NS(=O)(=O)c6ccc(N[C@H](CCN7CCN(CCCCCNc8cccc9c8C(=O)N(C8CCC(=O)NC8=O)C9=O)CC7)CSc7ccccc7)c(S(=O)(=O)C(F)(F)F)c6)cc5)CC4)CCC(C)(C)C3)(C1)C2 (stereo partly drawn) [Example 10, N-((4-(((2R)-4-(4-(5-((2-(2,6-dioxopiperidin-3-yl)-1,3-dioxoisoindolin-4-yl)amino)pentyl)piperazin-1-yl)-1-(phenylthio)butan-2-yl)amino)-3-((trifluoromethyl)sulfonyl)phenyl)sulfonyl)-4-(4-((2-(3-ethylbicyclo[1.1.1]pentan-1-yl)-4,4-dimethylcyclohex-1-en-1-yl)methyl)piperazin-1-yl)benzamide] | 50 to 150 nM
CC1(C)CCC(CN2CCN(c3ccc(C(=O)NS(=O)(=O)c4ccc(N[C@H](CCN5CCN(CCCCNc6cccc7c6C(=O)N(C6CCC(=O)NC6=O)C7=O)CC5)CSc5ccccc5)c(S(=O)(=O)C(F)(F)F)c4)cc3)CC2)=C(C23CC(C(F)F)(C2)C3)C1 (stereo partly drawn) [Example 8, 4-[4-[[2-[3-(difluoromethyl)-1-bicyclo[1.1.1]pentanyl]-4,4-dimethyl-cyclohexen-1-yl]methyl]piperazin-1-yl]-N-[4-[[(1R)-3-[4-[4-[[2-(2,6-dioxo-3-piperidyl)-1,3-dioxo-isoindolin-4-yl]amino]butyl]piperazin-1-yl]-1-(phenylsulfanylmethyl)propyl]amino]-3-(trifluoromethylsulfonyl)phenyl]sulfonyl-benzamide] | ≤ 50 nM
CN(CCCCCCNc1cccc2c1C(=O)N(C1CCC(=O)NC1=O)C2=O)CC[C@H](CSc1ccccc1)Nc1ccc(S(=O)(=O)NC(=O)c2ccc(N3CCN(CC4=C(C56CC(C(F)F)(C5)C6)CC(C)(C)CC4)CC3)cc2)cc1S(=O)(=O)C(F)(F)F (stereo partly drawn) [Example 21, 4-(4-((2-(3-(difluoromethyl)bicyclo [1.1.1]pentan-1-yl)-4,4-dimethylcyclohex-1-en-1-yl)methyl)piperazin-1-yl)-N-((4-(((2R)-4-((6-((2-(2,6-dioxopiperidin-3-yl)-1,3-dioxoisoindolin-4-yl)amino)hexyl)(methyl)amino)-1-(phenylthio)butan-2-yl)amino)-3-((trifluoromethyl)sulfonyl)phenyl)sulfonyl)benzamide] | 50 to 150 nM
